According to US6528251B2, “Method of managing the chemotherapy of patients who are HIV positive based on the phenotypic drug sensitivity of human HIV strains” (Virco N.V., priority 1996, dated 2003):
Where two headings read alike, the source gives them in different places.

How the values were obtained:
Format in all cases: cell-based, HIV-1
[1] = tested on: recombinant virus from patient viral RNA (Example 12); assay: Recombinant virus assay (MT4/MTT), patient of Example 12 (therapy history RT and protease inhibitors); conditions: for ratio (1)/(2): Table 8, patient mean IC50 / recIIIB IC50, Example 12
Procedure: (§1) RNA was isolated from 100 μl of plasma according to the method described by Boom, R. et al. (1990, supra), and was reverse transcribed with the GeneAmp reverse transcriptase kit (Perkin Elmer) as described by the manufacturer and using an HIV-1 specific downstream primer (OUT3: 5′-CATTGCTCTCCAATTACTGTGATATTTCTCATC-3′; SEQ ID NO: 1). PCR on reverse transcribed RNA was performed with inner and outer primers as described by Kellam, P. and Larder, B. A. (1994, supra). After chloroform extraction and centrifugation on Centricon 100 columns or centrifugation on anion-exchange spin columns (Quiagen), the isolated PCR product was ready for use in the transfection reactions.
(§2) MT4 cells were subcultured at a density of 250,000 cells/ml before transfection (exponential growth phase). Cells were pelleted and resuspended in phosphate buffered saline (PBS) at a concentration of […]. A 0.8 ml portion (2.5 10E6 cells/ml) was used for each transfection. Transfection was performed with the Bio-Rad Gene pulser making use of 0.4 cm electrode cuvettes. Cells were electroporated in the presence of […] of linearised pHIVΔRT plasmid and approximately 5 μg of RT PCR product at 250SF and 300 V, followed by a 30-min incubation at room temperature. Subsequently, 10 ml of fresh culture medium was added to the cell suspension and incubation was performed at 37° C. in a humidified atmosphere of 5% CO2.
(§3) During 7 to 10 days following the transfection, cells were monitored for the appearance of cytopathogenic effect (CPE). In the absence thereof, cells were subcultured in different flasks. Subsequently, culture supernatants of transfected cells were used to create a stock of recombinant virus and stored in 1.5 ml aliquots at −70° C.
(§4) After titration of the new viruses, the stocks were used for antiviral experiments in the presence of serial dilutions of different HIV inhibitors. Titres of the harvested supematants were determined by limited serial dilution titration of virus in MT4 cells.
(§5) Viruses with a useful titre were used in antiviral experiments. For this purpose, 96-well microtitre plates were filled with 100μl of complete culture medium. Subsequently, stock solutions of compounds were added in 25 μl volumes to series of duplicate wells. HIV- and mock-infected cell samples were included for each drug (or drug combination). Exponentially growing MT4 cells were then transferred to the microtitre plates at a density of 150,000 cells/ml. The cell cultures were then incubated at 37° C. in a humidified atmosphere of 5% CO2. Five days after infection, the viability of the mock- and HIV-infected cells was examined spectrophotometrically by the M1T method (Pauwels, R. et al. J. Virol. Meth. (1988), 20: 309-321) as described in Section 6 below.
(§6) To each well of the microtiter plates, 20 μl of a solution of MTT (7.5 mg/ml in PBS) was added. The plates were further incubated at 37° C. for 1 h. Then, 150 μl of medium was removed without disturbing the MT4 cell clusters containing the formazan crystals. Solubilization of the formazan crystals was achieved by adding 100 μl 5% Triton X-100 in acidified isopropanol (5 ml concentrated HCl per liter solvent). Complete dissolution of the formazan crystals was obtained after the plates had been placed on a plate shaker for 10 min. Finally the absorbances were read at two wavelengths (540 and 690 nm). From these optical density (OD) data, 50% inhibitory (IC50) and 50% cytotoxic (CC50) concentrations were derived.
An HIV infected patient with a therapy history including RT and protease inhibitors donated plasma whose susceptibility to a number of RT inhibitors and protease inhibitors was determined according to the protocol set out in Example 1.

[2] = tested on: recombinant virus from plasma of HIV-infected individuals on NNRTI long-term monotherapy; assay: Phenotyping of patients on NNRTI long-term monotherapy (Example 13), fold resistance
Procedure: as §4, §5, §6
Plasma samples were obtained from HIV-infected individuals who had been receiving non-nucleoside RT inhibitor (NNRTI) long-term monotherapy. HIV-RNA was extracted, reverse-transcribed and amplified as described in Example 1. Starting from outer PCR material of positive samples, the first 785 nucleotides of the RT gene were amplified and this material was further used for genotyping.
Amino acids changes at these positions are shown for each patient in the following rows. […] The right part of Table 9 presents the fold resistance to different RT inhibitors as determined by the method according to the invention for each of the patients' samples. NNRTI 1 is the non-nucleoside RT inhibitor that was administered to the patients.

[3] = tested on: recombinant virus from patient viral RNA (Example 10, drug-naive patient); assay: Recombinant virus assay (MT4/MTT), drug-naive patient of Example 10; conditions: for IC50: Human immunodeficiency virus 1, Table 6, Example 10 patient virus; for ratio (1)/(2): Table 6, patient mean IC50 / recIIIB IC50, Example 10
Procedure: as §1, §2, §3, §4, §5, §6
A drug-naive HIV-infected patient donated plasma whose susceptibility to a number of RT inhibitors and protease inhibitors was determined according to the protocol set out in Example 1. Recombinant wild type HIV strain recIIIB was used as a reference HIV virus.

[4] = tested on: recombinant virus from patient viral RNA (Example 11); assay: Recombinant virus assay (MT4/MTT), patient of Example 11 (therapy history RT and protease inhibitors); conditions: for ratio (1)/(2): Table 7, patient mean IC50 / recIIIB IC50, Example 11
Procedure: as §1, §2, §3, §4, §5, §6
An HIV infected patient with a therapy history including RT and protease inhibitors donated plasma whose susceptibility to a number of RT inhibitors and protease inhibitors was determined according to the protocol set out in Example 1. Recombinant wild type HIV strain recIIIb was used as a reference HIV virus.

[5] = Human immunodeficiency virus 1, MT4, read-out: Anti-HIV-1 activity IC50 (μM) Exp. 1
[6] = Human immunodeficiency virus 1, MT4, read-out: Anti-HIV-1 activity IC50 (μM) Exp. 2
[7] = Human immunodeficiency virus 1, read-out: Anti-HIV-1 activity IC50 (μM) Mean (1)
[8] = Patient 4, no resistance associated mutation
[9] = Patient 5, no resistance associated mutation
[10] = Patient 11, RT mutations M41L, D67N, K70R, K103N, M184V, T215F, K219Q
[11] = Patient 12, RT mutations M41L, T215Y
[12] = Patient 13, RT mutations K101E, K103K/N, E138A, G190G/A
[13] = Patient 16, RT mutations K103N, M184V
[14] = MT4 cells, read-out: Anti-HIV-1 activity IC50 (μM) Exp. 1
[15] = MT4 cells, read-out: Anti-HIV-1 activity IC50 (μM) Exp. 2
[16] = mean, read-out: Anti-HIV-1 activity IC50 (μM) Mean (1)

| Structure (SMILES) | ratio (1)/(2) [1] | FOLD RESISTANCE TO ([2]; Patient 1, RT mutation K103N) | FOLD RESISTANCE TO ([2]; Patient 2, RT mutation K103S) | FOLD RESISTANCE TO ([2]; Patient 3, RT mutation K103N) | FOLD RESISTANCE TO [2, 8] | FOLD RESISTANCE TO [2, 9] | FOLD RESISTANCE TO ([2]; Patient 6, RT mutation K103N) | FOLD RESISTANCE TO ([2]; Patient 7, RT mutation K103S) | FOLD RESISTANCE TO ([2]; Patient 8, RT mutation K103N) | FOLD RESISTANCE TO ([2]; Patient 9, RT mutation Y181C) | FOLD RESISTANCE TO ([2]; Patient 10, RT mutation K103N) | FOLD RESISTANCE TO [2, 10] | FOLD RESISTANCE TO [2, 11] | FOLD RESISTANCE TO [2, 12] | FOLD RESISTANCE TO ([2]; Patient 14, RT mutation K103N) | FOLD RESISTANCE TO ([2]; Patient 15, RT mutation K103N) | FOLD RESISTANCE TO [2, 13] | FOLD RESISTANCE TO ([2]; Patient 17, RT mutation K103N) | FOLD RESISTANCE TO ([2]; Patient 18, RT mutation K103S) | FOLD RESISTANCE TO ([2]; Patient 19, RT mutation K103N) | further results |
| --- | --- | --- | --- | --- | --- | --- | --- | --- | --- | --- | --- | --- | --- | --- | --- | --- | --- | --- | --- | --- | --- |
| Nc1ccn([C@@H]2CS[C@H](CO)O2)c(=O)n1 [3TC, lamivudine] | 22 | 1 fold | 0.4 fold | 1 fold | 0.1 fold | 0.4 fold | 0.3 fold | 0.04 fold | 1 fold | 1 fold | 0.1 fold | >8 fold | 2 fold | 1 fold | 1 fold | 1 fold | >8 fold | 1 fold | 1 fold | 1 fold | IC50 [1, 5]: > 100 µM; IC50 [1, 6]: > 100 µM; IC50 [1, 7]: > 100 µM; FOLD RESISTANCE TO ([2]; Patient 20, RT mutation A98G): 1 fold; FOLD RESISTANCE TO ([2]; Patient 21, RT mutation K103N): 0.4 fold; FOLD RESISTANCE TO ([2]; Patient 22, RT mutation V108I): 0.4 fold; FOLD RESISTANCE TO ([2]; Patient 23, RT mutation K103N): 0.2 fold; FOLD RESISTANCE TO ([2]; Patient 24, RT mutation K101Q): 1 fold; IC50 [3, 14]: 1.53 µM; IC50 [3, 15]: 1.72 µM; IC50 [3, 16]: 1.62 µM; ratio (1)/(2) [3]: 0.4; IC50 [4, 5]: > 100 µM; IC50 [4, 6]: 94 µM; IC50 [4, 7]: ≥ 97 µM; ratio (1)/(2) [4]: 19 |
| Cc1cn([C@H]2C[C@H](N=[N+]=[N-])[C@@H](CO)O2)c(=O)[nH]c1=O [AZT, zidovudine] | 88 | 1 fold | 1 fold | 0.4 fold | 0.3 fold | 1 fold | 1 fold | 1 fold | 1 fold | 2 fold | 0.4 fold | 94 fold | 28 fold | 1 fold | 1 fold | 2 fold | 1 fold | 1 fold | 1 fold | 1 fold | susceptibility of the patient's HIV strain (in words) ([1]; Example 12 patient, conclusion from Table 8): decreased susceptibility; IC50 ([1]; Human immunodeficiency virus 1, Table 8, Example 12 patient virus, MT4 cells, read-out: Anti-HIV-1 activity IC50 (μM) Exp. 1): 3.83 µM; IC50 ([1]; Human immunodeficiency virus 1, Table 8, Example 12 patient virus, MT4 cells, read-out: Anti-HIV-1 activity IC50 (μM) Exp. 2): 3.35 µM; IC50 ([1]; Human immunodeficiency virus 1, Table 8, Example 12 patient virus, mean, read-out: Anti-HIV-1 activity IC50 (μM) Mean (1)): 3.59 µM; FOLD RESISTANCE TO ([2]; Patient 20, RT mutation A98G): 0.4 fold; FOLD RESISTANCE TO ([2]; Patient 21, RT mutation K103N): 1 fold; FOLD RESISTANCE TO ([2]; Patient 22, RT mutation V108I): 1 fold; FOLD RESISTANCE TO ([2]; Patient 23, RT mutation K103N): 0.2 fold; FOLD RESISTANCE TO ([2]; Patient 24, RT mutation K101Q): 1 fold; IC50 [3, 14]: 0.019 µM; IC50 [3, 15]: 0.019 µM; IC50 [3, 16]: 0.019 µM; ratio (1)/(2) [3]: 0.5; IC50 ([4]; Human immunodeficiency virus 1, Table 7, Example 11 patient virus, MT4 cells, read-out: Anti-HIV-1 activity IC50 (μM) Exp. 2): 0.015 µM; IC50 ([4]; Human immunodeficiency virus 1, Table 7, Example 11 patient virus, mean, read-out: Anti-HIV-1 activity IC50 (μM) Mean (1)): 0.015 µM; ratio (1)/(2) [4]: 0.3 |
